Laboratory results as given in article PMC7310027, “PET imaging of soluble epoxide hydrolase in non-human primate brain with [^18F]FNDP” (EJNMMI Research, 2020).
Where two headings read alike, the source gives them in different places.

Experiments:
[1] = Murine radiometabolite analysis (blood and brain) by RP-HPLC; type: in vivo, CD-1 mice
Experimental: Male CD-1 mice (25–26 g) were injected via the lateral tail vein with 37 MBq of high specific activity (1.1 TBq/μmol or 29.7 Ci/μmol) [^18F]FNDP. The mice were sacrificed by cervical dislocation at 10 and 30 min after injection, and a terminal blood sample was obtained. The mouse brains were rapidly removed, homogenized in 2 mL of ACN:H2O 50%–50% (vol) with 0.06 M ammonium formate to extract parent tracer and radiometabolites, centrifuged at 20,000 g at 4 °C. Resulting supernatants were analyzed by reverse-phase (RP)-HPLC.

[2] = Baboon [^18F]FNDP dynamic PET, baseline scans with kinetic modelling (2TCM, 1TCM, Logan); type: in vivo, baboon (Papio anubis); settings: male, baboon (Papio anubis), intravenous, baseline, mean ± SD of 3 baboons
Experimental: PET images were acquired using a CPS/CTI high-resolution research tomograph (HRRT), which has an axial resolution (FWHM) of 2.4 mm and in-plane resolution of 2.4–2.8 mm. […] These blocking studies were performed 27 to 43 days apart from each other to ensure full animal recovery. The animals had no food for 12 h prior to each PET study. Anesthesia was induced with intramuscular ketamine (7.5–10 mg/kg) and maintained with a continuous intravenous infusion of propofol at 0.3–0.4 mg/kg/min throughout the PET experiment. One venous catheter was inserted for the radioligand injection, and one arterial catheter was inserted to obtain arterial blood samples. Baboons were intubated to facilitate respiration, and circulatory volume was maintained by constant infusion of isotonic saline. Physiological vital signs including heart rate, blood pressure, electrocardiogram, and oxygen saturation were monitored continuously throughout the study.
The animals were positioned in the PET scanner with the head immobilized using a thermoplastic mask. A 6-min transmission scan was acquired using a rotating ^137Cesium source for generating attenuation maps. The 90-min dynamic PET acquisition was then started in three-dimensional list mode simultaneously with an intravenous bolus injection of [^18F]FNDP. […]
(§1) Measurement of the arterial plasma input function was conducted through collection of ~ 40 blood samples over the course of the 90-min dynamic PET study. […] Samples were then centrifuged at 1200 × g, and the plasma radioactivity was measured with a cross-calibrated PerkinElmer Wizard 2480 automatic gamma counter.
The 90 min of PET data were binned into 30 frames: four 15-s, four 30-s, three 1-min, two 2-min, five 4 -min, and 12 5-min frames. Images were reconstructed using the 3D iterative ordered subset expectation maximization (OS-EM) algorithm (with six iterations and 16 subsets) with correction for radioactive decay, deadtime, attenuation, scatter, and randoms. The reconstructed image space consisted of cubic voxels, each 1.22 mm^3 in size, and spanning dimensions of 31 cm × 31 cm (transaxially) and 25 cm (axially).
The software package PMOD (v3.7, PMOD Technologies Ltd, Zurich, Switzerland) was used for the image processing and subsequent kinetic analysis. The previously acquired T1-weighted brain MRI images for the baboon were co-registered to the reconstructed dynamic PET images acquired in this study. Through manually matching the co-registered MRI to the INIA19 Template and NeuroMaps Atlas for Primate Brain Image Parcellation and Spatial Normalization, 13 representative baboon brain volumes of interest (VOIs) were defined, […] Regional time activity curves (TACs) were then generated for both baseline and blocking PET scans using those VOIs.
Next, kinetic modeling was performed based on the TACs and the metabolite-corrected arterial plasma input functions. For brain uptake, the primary outcome measure was the regional brain distribution volume (VT) of [^18F]FNDP, defined as concentration of the radiotracer in regional tissue relative to that in blood at equilibrium. We evaluated which compartmental models (e.g., two-tissue-three-compartment (2TCM) or one-tissue-two-compartment (1TCM)) best described the [^18F]FNDP PET data, using statistical model selection criteria, such as the Akaike information criterion. For comparison, the Logan graphical method (t* = 30 min) was also used to compute regional VT, as well as generating voxel-wise parametric images of VT [31].

[3] = design: method as in PMID 27417650; settings: mouse brain; cited from earlier work
[4] = Baboon plasma radiometabolite analysis by HPLC; type: in vivo, baboon (Papio anubis)
Experimental: as §1
Select plasma samples (0, 5, 10, 20, 30, 60, and 90 min) were analyzed for radiometabolites using high-performance liquid chromatography (HPLC). The modified column-switching HPLC method was used. The HPLC system consisting of a 1260 infinity quaternary pump, a 1260 infinity column compartment module, a 1260 infinity UV detector, and a Raytest GABI Star radiation detector, was operated with OpenLab CDS EZChrom (A.01.04) software. […] After 1 min of isocratic elution, analytical mobile phase composed of 65% acetonitrile and 35% water with 0.06 M trimethylamine (at pH = 7.2, adjusted with phosphoric acid) was applied to direct non-polar compounds trapped on the capture column to an analytical column (Gemini C18(2), 10 μm, 4.6 × 250 mm) and detectors at 2 mL/min. The HPLC system was standardized for mass using non-radioactive FNDP prior to analysis of the blood plasma samples, which were spiked with 5 μL of non-radioactive FNDP at a concentration of 1 mg/mL.

Which “fraction of radioactivity by HPLC (Met-1, Met-2, parent)” value (“fraction of radioactivity by HPLC” below) ([1]; Mouse blood (10 min)) does the source give for O=C(NCCC(c1ccccc1)c1ccccc1)c1ccc([18F])nc1 [[^18F]FNDP, N-(3,3-diphenylpropyl)-6-^18F-fluoronicotinamide] here?
The value was 63.4 ± 4.4%.

And the “fraction of radioactivity by HPLC” value ([1]; Mouse blood (30 min))?
Its value is 50.1 ± 10.5%.

What about the “fraction of radioactivity by HPLC” value ([1]; Mouse brain (10 min)) of the same compound?
The value was 99.2 ± 0.3%.

What about the “fraction of radioactivity by HPLC” value ([1]; Mouse brain (30 min)) of the same compound?
Its value is 98.3 ± 0.3%.

What about the Kp ([2]; brain: amygdala, Amygdala, read-out: 1TCM VT) of the same compound?
Its Kp is 10.5 ± 0.81.

What about the Kp ([2]; brain: amygdala, Amygdala, read-out: 2TCM VT) of the same compound?
The Kp was 12.5 ± 2.47.

And the Kp ([2]; brain: amygdala, Amygdala, read-out: Logan VT)?
The Kp was 12 ± 1.63.

And the Kp ([2]; brain: caudate, Caudate, read-out: 1TCM VT)?
The Kp was 12.9 ± 1.44.

And the Kp ([2]; brain: caudate, Caudate, read-out: 2TCM VT)?
The Kp was 13.9 ± 2.28.

What about the Kp ([2]; brain: caudate, Caudate, read-out: Logan VT) of the same compound?
The Kp was 13.3 ± 1.94.

What about the Kp ([2]; brain: cerebellum, Cerebellum, read-out: Logan VT) of the same compound?
Its Kp is 7.63 ± 0.58.

And the Kp ([2]; brain: hippocampus, Hippocampus, read-out: 1TCM VT)?
Its Kp is 10.3 ± 1.55.

What about the Kp ([2]; brain: hippocampus, Hippocampus, read-out: 2TCM VT) of the same compound?
Its Kp is 11.5 ± 2.61.

And the Kp ([2]; brain: hippocampus, Hippocampus, read-out: Logan VT)?
Its Kp is 11 ± 1.96.

What about the Kp ([2]; brain: hypothalamus, Hypothalamus, read-out: 1TCM VT) of the same compound?
The Kp was 7.77 ± 0.35.

And the Kp ([2]; brain: hypothalamus, Hypothalamus, read-out: 2TCM VT)?
Its Kp is 8.32 ± 0.57.

And the Kp ([2]; brain: hypothalamus, Hypothalamus, read-out: Logan VT)?
The Kp was 8.08 ± 0.44.

What about the Kp ([2]; brain: insula, Insula, read-out: 1TCM VT) of the same compound?
Its Kp is 12.1 ± 1.08.

And the Kp ([2]; brain: insula, Insula, read-out: 2TCM VT)?
The Kp was 13.8 ± 1.42.

And the Kp ([2]; brain: insula, Insula, read-out: Logan VT)?
The Kp was 12.8 ± 1.32.

What about the Kp ([2]; brain: putamen, Putamen, read-out: 1TCM VT) of the same compound?
The Kp was 12.9 ± 1.54.

What about the Kp ([2]; brain: putamen, Putamen, read-out: 2TCM VT) of the same compound?
The Kp was 13.8 ± 2.27.

And the Kp ([2]; brain: putamen, Putamen, read-out: Logan VT)?
Its Kp is 13.3 ± 1.81.

And the Kp ([2]; brain: temporal gyrus, Temporal gyrus, read-out: 1TCM VT)?
The Kp was 9.05 ± 0.41.

And the Kp ([2]; brain: temporal gyrus, Temporal gyrus, read-out: 2TCM VT)?
Its Kp is 9.77 ± 1.02.

What about the Kp ([2]; brain: thalamus, Thalamus, read-out: 1TCM VT) of the same compound?
Its Kp is 7.42 ± 0.36.

And the Kp ([2]; brain: thalamus, Thalamus, read-out: 2TCM VT)?
Its Kp is 7.9 ± 0.74.

And the Kp ([2]; brain: thalamus, Thalamus, read-out: Logan VT)?
Its Kp is 7.87 ± 0.55.

What about the “brain uptake, injected dose per gram of tissue” value [3] of the same compound?
The value was 5 % ID/g.

And the “fraction of radioactivity by HPLC” value ([4]; Baboon blood (10 min))?
The value was 77.0 ± 3.6%.

And the “fraction of radioactivity by HPLC” value ([4]; Baboon blood (30 min))?
The value was 46.5 ± 6.4%.

And the “fraction of radioactivity by HPLC” value ([4]; Baboon blood (60 min))?
Its value is 28.3 ± 9.3%.

And the “fraction of radioactivity by HPLC” value ([4]; Baboon blood (90 min))?
The value was 21.8 ± 7.0%.

What about the “suggested fraction of brain radioactivity that is parent” value ([4]; baboon brain, extrapolated) of the same compound?
The value was greater than 95%.
